The source of these data is US5242937A, “Topically active ocular thiadiazole sulfonamide carbonic anhydrase inhibitors” (Research Corporation Technologies, Inc., priority 1990, dated 1993).

Values after ≈ are worked out from the molar mass of the structure shown.

For data set [1], the system named is intraocular pressure (IOP). Nature of the data set: Ocular hypotensive effects following topical administration (Table 2). Particulars: IOP lowering; for Maximum Topical Effect: one eye, contralateral eye vehicle. The class given is in vivo, New Zealand white rabbits. As to the method: B.2 Ocular Hypotensive Effects Following Topical Administration
IOP was determined using rabbits familiarized with the Alcon pneumotonometric measurement employed. Drugs were dissolved or suspended in 0.9% saline or a 1% hydroxypropylmethyl-cellulose gel and instilled into one eye. The contralateral eye received the vehicle only, thereby serving as a control. Initial screening was accomplished using measurements every 15-30 minutes for 5-6 hours. Statistical analysis wa then performed using Student's t-test for paired data (two-tailed).

Data set [2] in a line: Solubility in pH=7.4 phosphate buffer (saturated solutions). The settings on record: aqueous buffer. It counts as physicochemical. How it is done:
(§1) In these examples the general methodology for testing these compounds is as follows. Melting point (M.P.) is assessed using a standard Fisher-Johns apparatus. Quantitative analysis of drug concentrations is carried out using either an enzymatic assay or by high performance liquid chromatography (HPLC). The enzymatic assay is a modification of Maren's micromethod, J. Pharmacol. Exp. Ther., 130:26-29, 1960. Essentially, a reaction volume of 0.8 mL, containing a carbonate/bicarbonate buffer, phenol red, purified carbonic anhydrase, and inhibitor is maintained at 0° degrees and saturation with CO2 by constant bubbling. The time required for acidification to a color change endpoint is monitored as the dependent variable. Carbonic anhydrase inhibitors increase reaction time in proportion to their concentrations over a useful range. The HPLC analysis is performed using reverse phase chromatography (C18) and gradient elution. At a flow rate of 2mL/min, initial mobile phase composition is 95% A, 5% B, where A is 50 mM phosphate buffer, pH=2, and B is CH3 OH. This composition is altered in a linear fashion over 12 minutes to a final composition of 5:95, A:B, v:v. Capacity factor (k') is determined using the relationship k'=([…] -Vo)/Vo where Ve is the elution volume of the analyte of interest and Vo is the void volume of the column. HPLC analysis using photodiode array UV-visible detection (400-200 nm) is also used to assess purity and acquire spectral information.
Solubility is determined by preparing saturated solutions of test compounds in pH=7.4 phosphate buffer followed by analysis of the solution for compound concentration.

Data set [3] can be described thus: Corneal permeability rate constant (kin) across freshly excised bovine corneas in vitro; accession rate. The class given is in vitro ADME. Particulars: for kin (corneal permeability rate constant): excised bovine corneas, in vitro. As to the method: as §1
(§2) Corneal permeability rate constants (kin) are determined in an in vitro system. Freshly excised bovine corneas are placed on 8 mm tissue culture wells (epithelial surface down) filled with tissue culture medium containing test compound. The well formed by the curvature of the cornea is filled with drug-free medium. Samples of medium are taken from the endothelial side for determination of drug concentrations. The rate constant for drug appearance is kin. Enzyme inhibition is assessed by determination of KI versus carbonic anhydrase II using the enzymatic method. Accession rate is the product of kin and maximum buffer solubility. This is a useful estimate of delivery rate of drug to the anterior chamber of the eye following topical administration.

Data set [4] is described as follows: Partition coefficients (PC), organic solvent : pH=7.4 phosphate buffer. The class given is physicochemical. The settings on record: for PC (CHCl3 : buffer): chloroform : pH=7.4 phosphate buffer; for PC (ether: buffer): diethyl ether : pH=7.4 phosphate buffer. How it is done:
as §1
Partition coefficients (PC) are determined by dissolving test compound in pH=7.4 phosphate buffer (saturated with the appropriate organic solvent) or organic solvent (diethyl ether or chloroform) saturated with buffer. Equal volumes of organic and aqueous solutions are added to test tubes which are then capped and mixed by inversion until equilibrium is achieved. The ratio of drug concentration organic: aqueous is the partition coefficient.

Data set [5] relates to intraocular pressure (IOP). Put plainly: Ocular hypotensive effects following systemic administration (Table 1). It counts as in vivo, New Zealand albino rabbits. The settings on record: subcutaneous, 225 μmol in corn oil, mean (S.D.). As to the method: B.1 Ocular Hypotensive Effects Following systemic Administration
Compounds are dissolved in corn oil and injected subcutaneously into New Zealand albino rabbits. […] Injection time is defined as t=0. […] Values shown are IOP in mm Hg represented as the mean (S.D.) of n replications. Data are analyzed using Student's t-test for unpaired data. For time points marked with asterisks, p<0.05, which is taken to indicate a difference from vehicle treated controls.

Another data set has as its target carbonic anhydrase II (Homo sapiens, UniProt P00918). Nature of the data set: Enzyme inhibition, KI versus carbonic anhydrase II (enzymatic micromethod). It counts as biochemical. The settings on record: 0°. How it is done: as §1, with “Carbonic anhydrase inhibitors increase reaction time in proportion to their concentrations over a useful range.” left out
as §2, with “solubility.” for “solubility. This is a useful estimate of delivery rate of drug to the anterior chamber of the eye following topical administration.”

For data set [6] the following is noted: oral administration; cited from earlier work.
The conditions of data set [7]: topical CAI, IOP lowering; cited from earlier work.

As for `CCOC(=O)CCCCC(=O)Nc1nnc(S(N)(=O)=O)s1` [Compound 8, ethyladipoylazolamide], in data set [1], the Duration is 2 h, the “Time to Peak effect” value came out at 30 min and the “Maximum Topical Effect” value is on record as “approx. -1.0 mm Hg”.

Usually solubility stands for the concentration that dissolves in the medium under given conditions. With `CCOC(=O)CCC(=O)Nc1nnc(S(N)(=O)=O)s1` [Example 6, Ethylsuccinylazolamide], the concentration in solution in data set [2] (solubility) was 5.8 mM (≈ 1790 µg/mL). In data set [3], this compound registered an accession rate of 91 µM/h. Besides, in data set [3], the “kin (corneal permeability rate constant)” value was determined as 0.0155 h⁻¹. Besides, the “PC (CHCl3 : buffer)” value in data set [4] was found to be 1.24. The “PC (ether: buffer)” value in data set [4] was 0.35. Also, the IOP is listed as 18.3(1.0) mm Hg in data set [5] (t=0 min); 17.5(2.0) mm Hg in data set [5] (t=20 min); 15.4(2.1) mm Hg in data set [5] (t=45 min, * p<0.05 vs vehicle); 13.7(1.6) mm Hg in data set [5] (t=60 min, * p<0.05 vs vehicle); 12.4(1.9) mm Hg in data set [5] (t=75 min, * p<0.05 vs vehicle); 15.1(2.0) mm Hg in data set [5] (t=90 min, * p<0.05 vs vehicle). The IOP in data set [5] (t=110 min, * p<0.05 vs vehicle) was 15.0(1.8) mm Hg; in data set [5] (t=150 min, * p<0.05 vs vehicle), 16.6(1.6) mm Hg.

A word on the Ki: it is a dissociation constant, usually derived from enzyme kinetics or from competition with a known ligand. The low end stands for a stronger hold on the target, the high end for a looser hold on the target. On to `CCOC(=O)C(=O)Nc1nnc(S(N)(=O)=O)s1` [Example 5, Ethyloxaloylazolamide], for which, at carbonic anhydrase II, the affinity corresponds to a Ki of 32 nM. For the same compound, the solubility in data set [2] (unit nm [sic]) was 91 mM (≈ 25500 µg/mL). The accession rate in data set [3] was found to be 309 µM/h. In addition, the “PC (CHCl3 : buffer)” value in data set [4] is given as 0.23. The “PC (ether: buffer)” value in data set [4] worked out at 0.3. The IOP in data set [5] (t=0 min) is reported as 18.4(1.9) mm Hg; in data set [5] (t=20 min), 17.5(2.1) mm Hg; in data set [5] (t=45 min, * p<0.05 vs vehicle) it was 15.0(2.6) mm Hg; in data set [5] (t=60 min, * p<0.05 vs vehicle) it was 14.5(2.2) mm Hg; in data set [5] (t=75 min, * p<0.05 vs vehicle), 14.6(5.1) mm Hg; in data set [5] (t=90 min, * p<0.05 vs vehicle), 17.8(1.7) mm Hg. For the same compound, the IOP in data set [5] (t=110 min, * p<0.05 vs vehicle) is recorded as 17.3(2.2) mm Hg; in data set [5] (t=150 min, * p<0.05 vs vehicle), 18.3(1.3) mm Hg. In data set [1], this compound gave a Duration of no less than 5 h. Further, the “Time to Peak effect” value in data set [1] is 75 min. In addition, the “Maximum Topical Effect” value in data set [1] is given as -3.0 ± 0.7 mm Hg.

Consider `CC(=O)Nc1nnc(S(N)(=O)=O)s1` [acetazolamide, 2-acetylamino-1,3,4-thiadiazole-5-sulfonamide], for which the “decrease of IOP” value in data set [6] was “shown to decrease IOP following oral administration”.

Compound `NS(=O)(=O)c1nnc(N2C(=O)CCC2=O)s1` [Example 2, Succinylimidazolamide] registered a solubility in data set [2] of 10 mM (≈ 2620 µg/mL). Moreover, in data set [3], the accession rate came to 21 µM/h and the “kin (corneal permeability rate constant)” value was 0.0021 h⁻¹. Moreover, in data set [1], the Duration was 2 h, the “Time to Peak effect” value is 30 min and the “Maximum Topical Effect” value is listed as -2.3 ± 1.7 mm Hg.

With `NS(=O)(=O)c1nnc(N2C(=O)C=CC2=O)s1` [Example 3, Maleimidiazolamide], the affinity at carbonic anhydrase II corresponds to a Ki of 12 nM. In data set [2], this compound returned a solubility of 1 mM (≈ 260 µg/mL). In data set [3], the accession rate worked out at 10.8 µM/h and the “kin (corneal permeability rate constant)” value was determined as 0.0108 h⁻¹. In data set [1], the Duration was determined as 3 h, the “Time to Peak effect” value worked out at 60 min and the “Maximum Topical Effect” value was -2.0 ± 0.5 mm Hg.

As for `NS(=O)(=O)c1nnc(N2C(=O)C(O)C(O)C2=O)s1` (stereo not drawn) [Example 4, Dihydroxysuccinimidazolamide], at carbonic anhydrase II, the inhibitory constant (Ki) turned out to be 8 nM. The solubility in data set [2] is greater than 700 mM. For the same compound, in data set [3], the accession rate was no more than 21 µM/h and the “kin (corneal permeability rate constant)” value came out at 3e-05 h⁻¹. In addition, in data set [1], the Duration was no less than 6 h, the “Time to Peak effect” value came to 60 min and the “Maximum Topical Effect” value was -4.0 ± 0.7 mm Hg.

As to `Nc1ccc2nc(S(N)(=O)=O)sc2c1` [aminozolamide], the “effectiveness in clinical trial” value in data set [7] is recorded as “partially effective in clinical trial”.

The compound `NS(=O)(=O)c1nnc(NC(=O)CCCCC(=O)O)s1` [Example 8] yielded a solubility in data set [2] of 0.5 mM (≈ 154 µg/mL).

`CCOC(=O)CCCCC(=O)Nc1nnc(S(N)(=O)=O)s1` [Example 7]: the affinity at carbonic anhydrase II (unit inferred) corresponds to a Ki of 60 nM. The compound also had a solubility in data set [2] of 0.2 mM (≈ 67.3 µg/mL). In data set [3], the accession rate turned out to be 26 µM/h and the “kin (corneal permeability rate constant)” value was 0.0512 h⁻¹. Besides, the “PC (CHCl3 : buffer)” value in data set [4] is 3.03.
